Laboratory results taken from ChEMBL document CHEMBL1148149, “Bufadienolide and spirostanol glycosides from the rhizomes of helleborusorientalis” (J Nat Prod, 2003).
Values after ≈ are worked out from the molar mass of the structure shown.

Key:
Assay type in all cases: functional, cell-based
[1] = Cytotoxicity against human HPC cells after 24 hrs by MTT assay
HepG2 = test: Cytotoxicity against human HepG2 cells after 24 hrs by MTT assay; details: HepG2, 24 h
HSC-2 = test: Cytotoxicity against human HSC2 cells after 24 hrs by MTT assay; details: HSC-2, 24 h
A-375 = test: Cytotoxicity against human A375 cells after 24 hrs by MTT assay; details: A-375, 24 h

Which IC50 [1] does the source give for C[C@@H]1O[C@@H](O[C@H]2CC[C@]3(C=O)[C@H]4CC[C@]5(C)[C@@H](c6ccc(=O)oc6)[C@@H](O)C[C@]5(O)[C@@H]4CC[C@]3(O)C2)[C@H](O)[C@H](O)[C@H]1O here?
Its IC50 is 9.5 µg/mL (≈ 16.4 µM).

And the IC50 (HepG2)?
The IC50 was 0.74 µg/mL (≈ 1.28 µM).

And the IC50 (HSC-2)?
The IC50 was 0.0085 µg/mL (≈ 0.0147 µM).

What about the IC50 (A-375) of the same compound?
Its IC50 is 0.055 µg/mL (≈ 0.095 µM).

Which results are given for C[C@@H]1O[C@@H](O[C@H]2CC[C@]3(C=O)[C@H]4CC[C@]5(C)[C@@H](c6ccc(=O)oc6)CC[C@]5(O)[C@@H]4CC[C@]3(O)C2)[C@H](O)[C@H](O)[C@H]1O?
IC50 [1]: 6.7 µg/mL (≈ 11.9 µM); IC50 (HepG2): 0.25 µg/mL (≈ 0.444 µM); IC50 (HSC-2): 0.0028 µg/mL (≈ 0.00498 µM); IC50 (A-375): 0.0063 µg/mL (≈ 0.0112 µM)

For C[C@]12CC[C@H]3[C@@H](CC[C@]4(O)C[C@@H](O[C@@H]5O[C@H](CO)[C@@H](O)[C@H](O)[C@H]5O)CC[C@]34C=O)[C@@]1(O)CC[C@@H]2c1ccc(=O)oc1, which IC50 [1] is on record?
The IC50 was 0.082 µg/mL (≈ 0.142 µM).

And the IC50 (HepG2)?
The IC50 was 0.23 µg/mL (≈ 0.397 µM).

What about the IC50 (HSC-2) of the same compound?
The IC50 was 0.0029 µg/mL (≈ 0.00501 µM).

And the IC50 (A-375)?
Its IC50 is 0.0086 µg/mL (≈ 0.0149 µM).

Which IC50 (HSC-2) does the source give for C=C1CO[C@@]2(O[C@H]3C[C@H]4[C@@H]5CC=C6C[C@@H](O)C[C@@H](O[C@@H]7OC[C@H](O)[C@H](O[C@@H]8OC[C@@H](O)[C@H](O)[C@H]8O)[C@H]7O[C@@H]7O[C@@H](C)[C@H](OC(C)=O)[C@@H](O[C@@H]8OC[C@](O)(CO)[C@H]8O)[C@H]7O)[C@]6(C)[C@H]5CC[C@]4(C)[C@H]3[C@@H]2C)[C@@H](O)[C@H]1O here?
The IC50 was 86 µg/mL (≈ 82.3 µM).

Which IC50 (HSC-2) does the source give for C=C1CO[C@@]2(O[C@H]3C[C@H]4[C@@H]5CC=C6C[C@@H](O)C[C@@H](O[C@@H]7OC[C@H](O)[C@H](O[C@@H]8OC[C@@H](O)[C@H](O)[C@H]8O)[C@H]7O[C@@H]7O[C@@H](C)[C@H](OC(C)=O)[C@@H](O[C@@H]8OC[C@](O)(CO)[C@H]8O)[C@H]7O)[C@]6(C)[C@H]5CC[C@]4(C)[C@H]3[C@@H]2C)[C@@H](O)C1 here?
Its IC50 is 27 µg/mL (≈ 26.2 µM).

Which IC50 (HSC-2) does the source give for C=C1CO[C@@]2(O[C@H]3C[C@H]4[C@@H]5CC=C6C[C@@H](O)C[C@@H](O[C@@H]7OC[C@H](O)[C@H](O[C@@H]8OC[C@@H](O)[C@H](O)[C@H]8O)[C@H]7O[C@@H]7O[C@@H](C)[C@H](OC(C)=O)[C@@H](O[C@@H]8OC[C@](O)(CO)[C@H]8O)[C@H]7O)[C@]6(C)[C@H]5CC[C@]4(C)[C@H]3[C@@H]2COC(C)=O)[C@@H](O)[C@H]1O[C@@H]1O[C@H](C)[C@@H](O)[C@H](O)[C@H]1O here?
The IC50 was over 200 µg/mL.

With C=C1CO[C@@]2(O[C@H]3C[C@H]4[C@@H]5CC=C6C[C@@H](O)C[C@@H](O[C@@H]7OC[C@H](O)[C@H](O[C@@H]8OC[C@@H](O)[C@H](O)[C@H]8O)[C@H]7O[C@@H]7O[C@@H](C)[C@H](OC(C)=O)[C@@H](O[C@@H]8OC[C@](O)(CO)[C@H]8O)[C@H]7O)[C@]6(C)[C@H]5CC[C@]4(C)[C@H]3[C@@H]2COC(C)=O)[C@@H](O)[C@H]1O[C@@H]1O[C@H](CO)[C@@H](O)[C@H](O)[C@H]1O as the compound, how does the IC50 (HSC-2) read?
The IC50 was over 200 µg/mL.

Which IC50 (HSC-2) does the source give for C=C1CO[C@@]2(O[C@H]3C[C@H]4[C@@H]5CC=C6C[C@@H](O)C[C@@H](O[C@@H]7OC[C@H](O)[C@H](O[C@@H]8OC[C@@H](O)[C@H](O)[C@H]8O)[C@H]7O[C@@H]7O[C@@H](C)[C@H](OC(C)=O)[C@@H](O[C@@H]8OC[C@](O)(CO)[C@H]8O)[C@H]7O)[C@]6(C)[C@H]5CC[C@]4(C)[C@H]3[C@@H]2COC(C)=O)[C@@H](O)[C@H]1O here?
The IC50 was 184 µg/mL (≈ 167 µM).

Which IC50 [1] does the source give for COc1cccc2c1C(=O)c1c(O)c3c(c(O)c1C2=O)C[C@@](O)(C(=O)CO)C[C@@H]3O[C@H]1C[C@H](N)[C@H](O)[C@H](C)O1 [DOXORUBICIN] here?
Its IC50 is over 40 µg/mL.

What about the IC50 (HepG2) of the same compound?
The IC50 was over 40 µg/mL.

What about the IC50 (HSC-2) of the same compound?
The IC50 was 2.5 µg/mL (≈ 4.6 µM).

And the IC50 (A-375)?
The IC50 was 1.8 µg/mL (≈ 3.31 µM).
